# Source: publication PMC11513893, “Discovery of Oral Degraders of the ROS1 Fusion Protein with Potent Activity against Secondary Resistance Mutations” (Journal of Medicinal Chemistry, 2024)
# Legend:
# [1] = tested on: Ba/F3 ROS1-G2032R; test: Antiproliferation assay; assay type: cell-based, mouse; settings: Mus musculus, BaF3; Ba/F3 cells, cell growth inhibition, 72 h
# From the text: (§1) To assess targeted degradation of ROS1 fusion proteins, we first established a mouse pro-B cell line Ba/F3 as a model expressing the CD74-ROS1 oncogene or CD74-ROS1 with clinically observed secondary/tertiary mutations. The Ba/F3 cell line is dependent on interleukin-3 for survival and proliferation. Upon transduction of oncogenic ROS1, Ba/F3 cells become independent of interleukin-3 but dependent on the transduced driver gene.
# (§2) Ba/F3 immortalized murine bone marrow–derived pro-B cells were obtained from Creative Biogene (Shirley, NY) and cultured in RPMI supplemented with 10% FBS and IL3 (0.5 ng/mL). Ba/F3 cells expressing ROS1 variants were maintained in RPMI supplemented with 10% FBS and puromycin (0.7 mg/mL). […] Each compound was dissolved in DMSO and serially diluted in RPMI for cell culture experiments.
# (§3) To assess the 72 h effect of drug treatment on cell proliferation, 2000 to 3000 cells were plated in replicates of three in 96-well plates. The plates were placed in an incubator at 37 °C, 5% CO2 for 72 h. Following drug treatments, the cells were incubated with the Alamar Blue Assay reagent (BioRad), 5 μL each well for 4 h at 37 °C and 5% CO2. Luminescence was measured on a multiplate reader and analyzed. […] IC50 values were determined using a nonlinear regression model with a sigmoidal dose response in GraphPad. The data were collected based on triplicate experiments, and presented as mean ± SD.
# (§4) The resulting virus was used to infect Ba/F3 cells. After retroviral infection, Ba/F3 cells were selected by incubation with puromycin (0.7 mg/mL) for 2 weeks. For Ba/F3 cells infected by the CD74–ROS1 variants, IL3 was withdrawn from the culture medium at least 2 weeks before the experiments.
# [2] = tested on: Ba/F3 CD74-ROS1 non mutant; test: Antiproliferation assay (Alamar Blue, 72 h); assay type: cell-based, mouse; settings: Mus musculus, BaF3, 72 h, Ba/F3 cells, cell growth inhibition
# From the text: as §1, §2, §3, §4
# [3] = tested on: ROS1; test: ROS1 degradation in Ba/F3 cells (WES immunoblotting); assay type: cell-based; settings: for DC50: concentration needed to reduce ROS1 protein by 50%, Ba/F3 cells; for Dmax (%) (ROS1): maximal degradation of ROS1 in Ba/F3 cells
# Procedure: Protein levels were analyzed using a WES instrument according to the WES User Guide from ProteinSimple in duplicate experiments. The samples were mixed with the fluorescent 5 master mix (ProteinSimple) and then heated at 95 °C for 5 min. Boiled samples, biotinylated protein ladder, antibody diluent, Streptavidin-HRP, primary antibodies, ProteinSimple horseradish peroxidase conjugated antirabbit or antimouse secondary antibodies, luminol-peroxide, and wash buffer were loaded into the WES plate (Wes 12–230 kDa Prefilled Plates with Split Buffer, ProteinSimple). The plates and capillary cartridges were loaded into the WES instrument, and protein separation, antibody incubation, and imaging were performed according to manufacturer’s instructions. Compass software (ProteinSimple) was used to acquire the data and to generate the virtual blot image reconstruction and chemiluminescence signal intensity electropherograms. […] Protein levels are expressed as the AUC of the peak chemiluminescence intensity. Antibodies against phospho-ROS1(Tyr2274/2334) (E8F5J), ROS1 (D4D6(R)) were obtained from Cell Signaling Technology.
Compound,IC50 [1] [nM],IC50 [2] [nM],DC50 [3] [nM],Dmax (%) (ROS1) [3]
"Cc1cc(Nc2ncc(Cl)c(Nc3ccccc3S(=O)(=O)C(C)C)n2)c(OC(C)C)cc1C1CCN(C2CCN(CCNc3ccc4c(c3)C(=O)N(C3CCC(=O)NC3=O)C4=O)CC2)CC1 (centres unmarked) [8k, 5-((2-(4-(4-((5-Chloro-4-((2-(isopropylsulfonyl)phenyl)amino)pyrimidin-2-yl)amino)-5-isopropoxy-2-methylphenyl)-[1,4′-bipiperidin]-1′-yl)ethyl)amino)-2-(2,6-dioxopiperidin-3-yl)isoindoline-1,3-dione]",8590 ± 1180,171 ± 26,204,89
"Cc1cc(Nc2ncc(Cl)c(Nc3ccccc3S(=O)(=O)C(C)C)n2)c(OC(C)C)cc1C1CCN(C2CCN(CCCNc3ccc4c(c3)C(=O)N(C3CCC(=O)NC3=O)C4=O)CC2)CC1 (centres unmarked) [8l, 5-((3-(4-(4-((5-Chloro-4-((2-(isopropylsulfonyl)phenyl)amino)pyrimidin-2-yl)amino)-5-isopropoxy-2-methylphenyl)-[1,4′-bipiperidin]-1′-yl)propyl)amino)-2-(2,6-dioxopiperidin-3-yl)isoindoline-1,3-dione]",> 10000,598 ± 147,452,54
"Cc1cc(Nc2ncc(Cl)c(Nc3ccccc3S(=O)(=O)C(C)C)n2)c(OC(C)C)cc1C1CCN(C2CCN(C3CN(c4ccc5c(c4)C(=O)N(C4CCC(=O)NC4=O)C5=O)C3)CC2)CC1 (centres unmarked) [8m, 5-(3-(4-(4-((5-Chloro-4-((2-(isopropylsulfonyl)phenyl)amino)pyrimidin-2-yl)amino)-5-isopropoxy-2-methylphenyl)-[1,4′-bipiperidin]-1′-yl)azetidin-1-yl)-2-(2,6-dioxopiperidin-3-yl)isoindoline-1,3-dione]",2770 ± 1080,39 ± 34,35,92
"Cc1cc(Nc2ncc(Cl)c(Nc3ccccc3S(=O)(=O)C(C)C)n2)c(OC(C)C)cc1C1CCN(C2CCN(CC3CN(c4ccc5c(c4)C(=O)N(C4CCC(=O)NC4=O)C5=O)C3)CC2)CC1 (centres unmarked) [8n, 5-(3-((4-(4-((5-Chloro-4-((2-(isopropylsulfonyl)phenyl)amino)pyrimidin-2-yl)amino)-5-isopropoxy-2-methylphenyl)-[1,4′-bipiperidin]-1′-yl)methyl)azetidin-1-yl)-2-(2,6-dioxopiperidin-3-yl)isoindoline-1,3-dione]",1150 ± 466,713 ± 84,586,63
"Cc1cc(Nc2ncc(Cl)c(Nc3ccccc3S(=O)(=O)C(C)C)n2)c(OC(C)C)cc1C1CCN(C2CN(C3CN(c4ccc5c(c4)C(=O)N(C4CCC(=O)NC4=O)C5=O)C3)C2)CC1 (centres unmarked) [8o, 5-(3-(4-(4-((5-Chloro-4-((2-(isopropylsulfonyl)phenyl)amino)pyrimidin-2-yl)amino)-5-isopropoxy-2-methylphenyl)piperidin-1-yl)-[1,3′-biazetidin]-1′-yl)-2-(2,6-dioxopiperidin-3-yl)isoindoline-1,3-dione]",> 10000,116 ± 21,122,65
"Cc1cc(Nc2ncc(Cl)c(Nc3ccccc3S(=O)(=O)C(C)C)n2)c(OC(C)C)cc1C1CCN(C2CN(CC3CN(c4ccc5c(c4)C(=O)N(C4CCC(=O)NC4=O)C5=O)C3)C2)CC1 (centres unmarked) [8q, 5-(3-((3-(4-(4-((5-Chloro-4-((2-(isopropylsulfonyl)phenyl)amino)pyrimidin-2-yl)amino)-5-isopropoxy-2-methylphenyl)piperidin-1-yl)azetidin-1-yl)methyl)azetidin-1-yl)-2-(2,6-dioxopiperidin-3-yl)isoindoline-1,3-dione]",6120 ± 4070,66 ± 6,57,85
"Cc1cc(Nc2ncc(Cl)c(Nc3ccccc3S(=O)(=O)C(C)C)n2)c(OC(C)C)cc1C1CCN(C2CN(CC3CCN(c4ccc5c(c4)C(=O)N(C4CCC(=O)NC4=O)C5=O)CC3)C2)CC1 (centres unmarked) [8r, 5-(4-((3-(4-(4-((5-Chloro-4-((2-(isopropylsulfonyl)phenyl)amino)pyrimidin-2-yl)amino)-5-isopropoxy-2-methylphenyl)piperidin-1-yl)azetidin-1-yl)methyl)piperidin-1-yl)-2-(2,6-dioxopiperidin-3-yl)isoindoline-1,3-dione]",> 10000,72 ± 3,77,91
"Cc1cc(Nc2ncc(Cl)c(Nc3ccccc3S(=O)(=O)C(C)C)n2)c(OC(C)C)cc1C1CCN(C2CCN(C3CCN(c4ccc5c(c4)C(=O)N(C4CCC(=O)NC4=O)C5=O)CC3)CC2)CC1 (centres unmarked) [8s, 5-(4-(4-((5-Chloro-4-((2-(isopropylsulfonyl)phenyl)amino)pyrimidin-2-yl)amino)-5-isopropoxy-2-methylphenyl)-[1,4′:1′,4″-terpiperidin]-1″-yl)-2-(2,6-dioxopiperidin-3-yl)isoindoline-1,3-dione]",> 10000,106 ± 9,120,82
"Cc1cc(Nc2ncc(Cl)c(Nc3ccccc3S(=O)(=O)C(C)C)n2)c(OC(C)C)cc1C1CCN(C2CCN(CC3CCN(c4ccc5c(c4)C(=O)N(C4CCC(=O)NC4=O)C5=O)CC3)CC2)CC1 (centres unmarked) [8t, 5-(4-((4-(4-((5-Chloro-4-((2-(isopropylsulfonyl)phenyl)amino)pyrimidin-2-yl)amino)-5-isopropoxy-2-methylphenyl)-[1,4′-bipiperidin]-1′-yl)methyl)piperidin-1-yl)-2-(2,6-dioxopiperidin-3-yl)isoindoline-1,3-dione]",> 10000,147 ± 28,155,81

# Now from value to molecule, other results behind:
IC50 [1] [nM],IC50 [2] [nM],DC50 [3] [nM],Compound,Dmax (%) (ROS1) [3]
251 ± 125,112 ± 17,133,"COc1cc(N2CCN(c3ccc4c(c3)C(=O)N(C3CCC(=O)NC3=O)C4=O)CC2)ccc1Nc1ncc(Cl)c(Nc2ccccc2P(C)(C)=O)n1 (centres unmarked) [9a, 5-(4-(4-((5-Chloro-4-((2-(dimethylphosphoryl)phenyl)amino)pyrimidin-2-yl)amino)-3-methoxyphenyl)piperazin-1-yl)-2-(2,6-dioxopiperidin-3-yl)isoindoline-1,3-dione]",68
491 ± 48,61 ± 5,75,"COc1cc(N2CCC(N3CCN(C4CN(c5ccc6c(c5)C(=O)N(C5CCC(=O)NC5=O)C6=O)C4)CC3)CC2)ccc1Nc1ncc(Cl)c(Nc2ccccc2P(C)(C)=O)n1 (centres unmarked) [9d, 5-(3-(4-(1-(4-((5-Chloro-4-((2-(dimethylphosphoryl)phenyl)amino)pyrimidin-2-yl)amino)-3-methoxyphenyl)piperidin-4-yl)piperazin-1-yl)azetidin-1-yl)-2-(2,6-dioxopiperidin-3-yl)isoindoline-1,3-dione]",90
221 ± 26,7.1 ± 0.9,11,"COc1cc(C2CCN(C3CCN(CC4CCN(c5ccc6c(c5)C(=O)N(C5CCC(=O)NC5=O)C6=O)CC4)CC3)CC2)ccc1Nc1ncc(Cl)c(Nc2ccccc2P(C)(C)=O)n1 (centres unmarked) [9g, 5-(4-((4-(4-((5-Chloro-4-((2-(dimethylphosphoryl)phenyl)amino)pyrimidin-2-yl)amino)-3-methoxyphenyl)-[1,4′-bipiperidin]-1′-yl)methyl)piperidin-1-yl)-2-(2,6-dioxopiperidin-3-yl)isoindoline-1,3-dione]",88
115 ± 12,21 ± 8,34,"COc1cc(N2CCN(C3CCN(CC4CCN(c5ccc6c(c5)C(=O)N(C5CCC(=O)NC5=O)C6=O)CC4)CC3)CC2)ccc1Nc1ncc(Cl)c(Nc2ccccc2P(C)(C)=O)n1 (centres unmarked) [9h, 5-(4-((4-(4-(4-((5-Chloro-4-((2-(dimethylphosphoryl)phenyl)amino)pyrimidin-2-yl)amino)-3-methoxyphenyl)piperazin-1-yl)piperidin-1-yl)methyl)piperidin-1-yl)-2-(2,6-dioxopiperidin-3-yl)isoindoline-1,3-dione]",85
427 ± 32,6.6 ± 0.4,8,"COc1cc(N2CCN(c3ccc4c(c3)CN(C3CCC(=O)NC3=O)C4=O)CC2)ccc1Nc1ncc(Cl)c(Nc2ccccc2P(C)(C)=O)n1 (centres unmarked) [9l, 3-(5-(4-(4-((5-Chloro-4-((2-(dimethylphosphoryl)phenyl)amino)pyrimidin-2-yl)amino)-3-methoxyphenyl)piperazin-1-yl)-1-oxoisoindolin-2-yl)piperidine-2,6-dione]",92
